Molecular target: T1, Angereicherte γ-Glutamyl-Transpeptidasen (Bacillus subtilis subsp. natto, UniProt P63186)
T1 construct: Angereicherte γ-Glutamyl-Transpeptidasen der in Beispiel 3 genannten Mikroorganismen; endogenous in cells; host or cells: Bacillus subtilis "natto" IFO 3025, enzyme enriched from the culture
Test: Incubation of enriched enzyme with cephalosporin substrates (hydrolysis to D-α-Aminoadipinsäure and nucleus)
Format: biochemical
Settings: enriched enzyme from Bacillus subtilis; hydrolysis to D-α-Aminoadipinsäure and Desacetyl-7ACA or 7ACA
Source text: Angereicherte γ-Glutamyl-Transpeptidasen der in Beispiel 3 genannten Mikroorganismen wurden mit Desacetyl-Cephalosporin C inkubiert. Nur das Enzym aus Bacillus subtilis, welches auch AAA-AMC spaltet, kann Desacetyl-Cephalosporin C und Cephalosporin C zu D-α-Aminoadipinsäure und Desacetyl-7ACA (18 % Umsetzung) bzw. 7ACA (3 % Umsetzung) hydrolysieren.

T1 sequence (P63186 36-587): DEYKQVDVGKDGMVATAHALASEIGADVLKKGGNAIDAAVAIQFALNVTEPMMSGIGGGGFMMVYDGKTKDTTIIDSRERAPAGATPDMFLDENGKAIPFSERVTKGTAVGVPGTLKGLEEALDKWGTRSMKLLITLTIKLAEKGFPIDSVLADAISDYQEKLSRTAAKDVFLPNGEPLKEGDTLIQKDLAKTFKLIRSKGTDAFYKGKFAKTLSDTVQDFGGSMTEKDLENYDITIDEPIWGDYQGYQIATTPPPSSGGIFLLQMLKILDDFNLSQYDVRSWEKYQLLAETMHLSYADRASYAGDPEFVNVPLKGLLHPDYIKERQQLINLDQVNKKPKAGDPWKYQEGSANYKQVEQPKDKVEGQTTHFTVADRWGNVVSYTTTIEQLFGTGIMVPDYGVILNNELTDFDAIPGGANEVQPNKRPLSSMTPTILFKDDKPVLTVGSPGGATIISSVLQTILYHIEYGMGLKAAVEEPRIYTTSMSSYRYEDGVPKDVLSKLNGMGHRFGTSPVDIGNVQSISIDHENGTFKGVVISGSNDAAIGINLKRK

Row | Structure (SMILES) | Umsetzung
1 | CC(=O)OCC1=C(C(=O)O)N2C(=O)[C@@H](NC(=O)CCC[C@@H](N)C(=O)O)[C@H]2SC1 [Cephalosporin C] | 3%
2 | N[C@H](CCCC(=O)N[C@@H]1C(=O)N2C(C(=O)O)=C(CO)CS[C@H]12)C(=O)O [Desacetyl-Cephalosporin C] | 18%

From patent EP0363856A1, “Derivative of coumarin, process for its preparation and its use” (HOECHST AKTIENGESELLSCHAFT, priority 1988, dated 1990)
